Test results taken from US12577231B2, “Androgen receptor PROTACS” (GlaxoSmithKline Intellectual Property Development Limited, priority 2023, dated 2026).
Positions count from the first letter of the chain named.

How the values were obtained:
[1] = target: T1, Androgen Receptor, VCaP (AR wild type and amplified) (Homo sapiens, UniProt P10275); assay: Androgen Receptor Degradation-Imaging Assay, VCaP cell line; assay type: cell-based; conditions: 16 hours treatment, maximum observed degradation
T1 construct: endogenous in cells; host or cells: VCaP
T1 sequence (P10275 1-920): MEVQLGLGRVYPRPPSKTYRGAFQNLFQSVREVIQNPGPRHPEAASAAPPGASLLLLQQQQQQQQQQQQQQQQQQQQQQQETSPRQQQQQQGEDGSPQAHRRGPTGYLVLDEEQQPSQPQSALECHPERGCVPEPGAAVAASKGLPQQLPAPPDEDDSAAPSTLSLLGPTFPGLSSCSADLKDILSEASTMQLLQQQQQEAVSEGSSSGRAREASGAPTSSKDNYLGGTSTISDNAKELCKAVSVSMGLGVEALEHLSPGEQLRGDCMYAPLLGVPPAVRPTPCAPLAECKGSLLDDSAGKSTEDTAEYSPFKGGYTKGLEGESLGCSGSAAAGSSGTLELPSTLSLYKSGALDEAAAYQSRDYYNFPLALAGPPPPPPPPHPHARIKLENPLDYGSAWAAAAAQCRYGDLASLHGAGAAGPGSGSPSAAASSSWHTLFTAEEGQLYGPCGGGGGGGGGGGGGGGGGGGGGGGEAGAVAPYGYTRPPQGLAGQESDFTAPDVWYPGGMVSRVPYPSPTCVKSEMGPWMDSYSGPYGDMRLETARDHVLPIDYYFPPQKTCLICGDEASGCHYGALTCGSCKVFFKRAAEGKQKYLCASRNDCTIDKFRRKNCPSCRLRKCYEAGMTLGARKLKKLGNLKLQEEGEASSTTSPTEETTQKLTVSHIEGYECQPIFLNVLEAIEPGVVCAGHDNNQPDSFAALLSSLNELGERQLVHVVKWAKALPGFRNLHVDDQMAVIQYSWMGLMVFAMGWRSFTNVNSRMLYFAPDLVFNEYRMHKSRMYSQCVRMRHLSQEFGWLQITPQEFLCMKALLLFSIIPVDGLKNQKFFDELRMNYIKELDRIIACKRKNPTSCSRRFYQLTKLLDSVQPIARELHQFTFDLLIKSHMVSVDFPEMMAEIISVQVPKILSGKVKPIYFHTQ
Method: (§1) Degradation of Androgen Receptor (AR) protein in human prostate cancer cell lines (MDA-PCa-2b (AR T878A/L702H), LNCaP (AR T878A), VCaP (AR wild type and amplified) 22RV1 (AR H875Y) and PC3 (AR negative control)) treated with AR PROTACs was quantified using immunofluorescence. Prostate cancer cells were plated (MDA-PCa-2b, and VCaP 16,000 cells/well; LNCaP and 22RV1 32,000 cells/well, and PC3 8,000 cells/well) in an optical bottom 96-well cell culture plate and allowed to attach overnight. The prostate cancer cell lines were treated for 16 hours with a 10-point 3-fold dilution series (dose range=0.02 nM to 333 nM). PC3 is included as an AR negative control and not treated with compound. Cells are fixed and permeabilized with 4% formaldehyde, blocked with 10% goat serum in immunofluorescence (IF) buffer (130 mM NaCl, 7 mM Na2HPO4, 3.5 mM NaH2PO4, 7.7 mM NaN3, 0.1% BSA, 0.2% Triton X, 0.05% Tween 20) prior to overnight incubation with rabbit antibody specific for C terminus of AR (commercially available from RevMaB Biosciences). Following washes with IF buffer, cells were incubated with fluorescent secondary antibody (Goat anti-rabbit Alexa 647; commercially available from Invitrogen) and Hoechst nuclear stain (commercially available from Themo Scientific) prior to quantification of nuclear AR levels via Opera Phenix high-content fluorescent imager using a 40× water objective. Image analysis was performed with Harmony software.
(§2) The averaged nuclear Alexa 647 median fluorescence intensity (MFI) of PC3 cells is subtracted from the nuclear Alexa 647 MFI of PROTAC treated and DMSO control treated cells. % AR remaining is calculated for PROTAC treatments as a percent of the DMSO control (MFI PROTAC treated/MFI DMSO control treated)*100). DC50 and the Dmax values, were obtained from these normalised values fitted with a 4-parameter sigmoidal response curve (Xlfit software). The DC50 is the interpolated concentration of PROTAC corresponding to 50% of the protein being degraded, and the Dmax parameter is the maximum experimentally observed degradation.

[2] = target: T2, Androgen Receptor, MDA-PCa-2b (AR T878A/L702H) (Homo sapiens, UniProt P10275, L702H/T878A); assay: Androgen Receptor Degradation-Imaging Assay, MDA-PCa-2b cell line; assay type: cell-based; conditions: 16 hours treatment, maximum observed degradation
T2 construct: host or cells: MDA-PCa-2b
T2 sequence (P10275 1-920 L702H/T878A): T1 sequence (P10275 1-920) with L702H, T878A
Method: as §1, §2

Structure (SMILES)	Dmax [1]	Dmax [2]
COc1cc(O[C@H]2C(C)(C)[C@H](NC(=O)c3ccc(N4CCC(CN5CCC(n6ccc7c(N8CCC(=O)NC8=O)cccc76)CC5)CC4)cc3)C2(C)C)ccc1C#N [Example 16, N-((1r,3r)-3-(4-Cyano-3-methoxyphenoxy)-2,2,4,4-tetramethylcyclobutyl)-4-(4-((4-(4-(2,4-dioxotetrahydropyrimidin-1(2H)-yl)-1H-indol-1-yl)piperidin-1-yl)methyl)piperidin-1-yl)benzamide]	≥ 80%	≥ 80%
CC1(C)[C@H](NC(=O)c2ccc(N3CCC(CN4CCC(n5ncc6c(N7CCC(=O)NC7=O)ccnc65)CC4)CC3)c(F)c2)C(C)(C)[C@H]1Oc1ccc(C#N)c2ncccc12 [Example 40, N-((1r,3r)-3-((8-Cyanoquinolin-5-yl)oxy)-2,2,4,4-tetramethylcyclobutyl)-4-(4-((4-(4-(2,4-dioxotetrahydropyrimidin-1(2H)-yl)-1H-pyrazolo[3,4-b]pyridin-1-yl)piperidin-1-yl)methyl)piperidin-1-yl)-3-fluorobenzamide]	≥ 80%	≥ 80%
CC1(C)[C@H](NC(=O)c2cc(F)c(N3CCC(CN4CCC(n5ncc6c(N7CCC(=O)NC7=O)cccc65)CC4)CC3)c(F)c2)C(C)(C)[C@H]1Oc1ccc(C#N)c2ncccc12 [Example 30, N-((1r,3r)-3-((8-Cyanoquinolin-5-yl)oxy)-2,2,4,4-tetramethylcyclobutyl)-4-(4-((4-(4-(2,4-dioxotetrahydropyrimidin-1(2H)-yl)-1H-indazol-1-yl)piperidin-1-yl)methyl)piperidin-1-yl)-3,5-difluorobenzamide]	≥ 80%	≥ 80%
CC1(C)[C@H](NC(=O)c2ccc(N3CCC(CN4CCC(n5ncc6c(N7CCC(=O)NC7=O)cccc65)CC4)CC3)c(F)c2)C(C)(C)[C@H]1Oc1ccc(C#N)c2ncccc12 [Example 6, N-((1r,3r)-3-((8-Cyanoquinolin-5-yl)oxy)-2,2,4,4-tetramethylcyclobutyl)-4-(4-((4-(4-(2,4-dioxotetrahydropyrimidin-1(2H)-yl)-1H-indazol-1-yl)piperidin-1-yl)methyl)piperidin-1-yl)-3-fluorobenzamide]	≥ 80%	≥ 80%
CC1(C)[C@H](NC(=O)c2ccc(N3CCC(CN4CCC(n5ccc6c(N7CCC(=O)NC7=O)ncnc65)CC4)CC3)cc2)C(C)(C)[C@H]1Oc1ccc(C#N)c2ncccc12 [Example 28, N-((1r,3r)-3-((8-Cyanoquinolin-5-yl)oxy)-2,2,4,4-tetramethylcyclobutyl)-4-(4-((4-(4-(2,4-dioxotetrahydropyrimidin-1(2H)-yl)-7H-pyrrolo[2,3-d]pyrimidin-7-yl)piperidin-1-yl)methyl)piperidin-1-yl)benzamide]	≥ 80%	≥ 80%
CC1(C)[C@H](NC(=O)c2ccc(N3CCC(CN4CCC(n5ncc6c(N7CCC(=O)NC7=O)cccc65)CC4)CC3)c(F)c2)C(C)(C)[C@H]1Oc1ccc(C#N)c2c1CCCO2 [Example 8, N-((1r,3r)-3-((8-Cyanochroman-5-yl)oxy)-2,2,4,4-tetramethylcyclobutyl)-4-(4-((4-(4-(2,4-dioxotetrahydropyrimidin-1(2H)-yl)-1H-indazol-1-yl)piperidin-1-yl)methyl)piperidin-1-yl)-3-fluorobenzamide]	≥ 80%	≥ 80%
CC1(C)[C@H](NC(=O)c2ccc(N3CCC(CN4CCC(n5ccc6c(N7CCC(=O)NC7=O)cccc65)CC4)CC3)c(F)c2)C(C)(C)[C@H]1Oc1ccc(C#N)c2ncccc12 [Example 31, N-((1r,3r)-3-((8-Cyanoquinolin-5-yl)oxy)-2,2,4,4-tetramethylcyclobutyl)-4-(4-((4-(4-(2,4-dioxotetrahydropyrimidin-1(2H)-yl)-1H-indol-1-yl)piperidin-1-yl)methyl)piperidin-1-yl)-3-fluorobenzamide]	≥ 80%	≥ 80%
